According to patent US5140009A (Tap Pharmaceuticals, Inc., priority 1990, dated 1992):
Where two headings read alike, the source gives them in different places. Numbered stars: 1 amine (or outer) side, 2 acyl side, 3 side chain; on linkers, the order of the positions; unused ones are H or OH. Square brackets hold non-standard residues; d marks the D form. Peptide text beside a SMILES is read from it. * marks the point of attachment. Propanoyl(3-(4-F-phenyl)) = O=C(CCc1ccc(F)cc1)*; Propanoyl(3-(4-Cl-Ph)) = O=C(CCc1ccc(Cl)cc1)*; dPhe(4-Cl) = N[C@H](Cc1ccc(Cl)cc1)C(=O)O; X10 = O=C([C@@H](Cc1cncs1)N[*:1])[*:2]; 1Nal = N[C@@H](Cc1cccc2ccccc12)C(=O)O; d1Nal = N[C@H](Cc1cccc2ccccc12)C(=O)O; d2Nal = N[C@H](Cc1ccc2ccccc2c1)C(=O)O; d(hCit) = NC(=O)NCCCC[C@@H](N)C(=O)O; NMeY = CN[C@@H](Cc1ccc(O)cc1)C(=O)O; hhPhe = N[C@@H](CCCc1ccccc1)C(=O)O; d3Pal = N[C@H](Cc1cccnc1)C(=O)O; Cha = N[C@@H](CC1CCCCC1)C(=O)O; d2Thi = N[C@H](Cc1cccs1)C(=O)O; Nicotinoyl = O=C(c1cccnc1)*; Bn = c1ccc(C*)cc1

Molecular target: T1, LHRH receptors (Rattus norvegicus, UniProt P30969)
T1 construct: Pituitary membranes containing LHRH receptors are prepared in batches from quick-frozen rat pituitaries; tissue Hilltop Labs; host or cells: rat pituitary membranes
T1 sequence (P30969 1-327): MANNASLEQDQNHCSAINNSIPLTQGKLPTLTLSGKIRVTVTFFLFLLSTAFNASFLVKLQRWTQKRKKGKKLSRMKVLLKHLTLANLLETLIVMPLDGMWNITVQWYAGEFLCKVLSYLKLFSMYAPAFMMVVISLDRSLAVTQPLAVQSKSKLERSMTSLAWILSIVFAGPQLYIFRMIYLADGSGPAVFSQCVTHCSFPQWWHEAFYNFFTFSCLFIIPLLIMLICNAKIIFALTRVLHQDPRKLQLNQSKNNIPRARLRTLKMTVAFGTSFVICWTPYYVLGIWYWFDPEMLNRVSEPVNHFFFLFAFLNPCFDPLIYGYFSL
Assay: Receptor Binding (radioligand receptor binding assay)
Conditions: table 4, rat pituitary membranes, radioligand 50 pM, 2 hours at 4° C.

[1] = read-out: Receptor Binding pkI (converted)

CC(C)C[C@H](NC(=O)[C@@H](Cc1c[nH]c2ccccc12)NC(=O)[C@H](Cc1ccc(O)cc1)NC(=O)[C@H](CO)NC(=O)[C@@H](Cc1c[nH]c2ccccc12)NC(=O)CCc1ccc(F)cc1)C(=O)N[C@@H](CCCNC(=N)N)C(=O)N1CCC[C@H]1C(=O)N[C@H](C)C(N)=O [Compound 162, (3-10)[N-(3-(4-Fluorophenyl)propionyl)-D-Trp^3,6 -D-Ala^10]LHRH] ({Propanoyl(3-(4-F-phenyl))}-[dW]SY[dW]LRP[dA]-NH2) was tested, and the Ki [1] was 0.0105 nM.

Molecule CC(C)C[C@H](NC(=O)[C@@H](Cc1c[nH]c2ccccc12)NC(=O)[C@H](Cc1ccc(O)cc1)N(C)C(=O)[C@H](CO)NC(=O)[C@@H](Cc1c[nH]c2ccccc12)NC(=O)CCc1ccc(F)cc1)C(=O)N[C@@H](CCCNC(=N)N)C(=O)N1CCC[C@H]1C(=O)N[C@H](C)C(N)=O [Compound 164, (3-10)[N-(3-(4-Fluorophenyl)propionyl)-D-Trp^3,6 -NMeTyr^5 -D-Ala^10]LHRH] ({Propanoyl(3-(4-F-phenyl))}-[dW]S[NMeY][dW]LRP[dA]-NH2) has a Ki [1] of 0.0537 nM.

In the case of CC(C)C[C@H](NC(=O)[C@@H](CCCCN)NC(=O)[C@H](Cc1ccc(O)cc1)NC(=O)[C@H](COCc1ccccc1)NC(=O)[C@@H](Cc1cccs1)NC(=O)CCc1ccc(Cl)cc1)C(=O)N[C@@H](CCCNC(=N)N)C(=O)N1CCC[C@H]1C(=O)N[C@H](C)C(N)=O [Compound 167, (3-10)[N-(3-(4-Chlorophenyl)propionyl)-D-Thia^3 -Ser(O-Bzl)^4 -D-Lys^6 -D-Ala^10]LHRH] ({Propanoyl(3-(4-Cl-Ph))}-[d2Thi]S(Bn)Y[dK]LRP[dA]-NH2), the Ki (Receptor Binding pkI) is reported as 0.457 nM.

With CC(C)C[C@H](NC(=O)[C@@H](CCCCN)NC(=O)[C@H](Cc1ccc(O)cc1)N(C)C(=O)[C@H](COCc1ccccc1)NC(=O)[C@@H](Cc1cccs1)NC(=O)CCc1ccc(Cl)cc1)C(=O)N[C@@H](CCCNC(=N)N)C(=O)N1CCC[C@H]1C(=O)N[C@H](C)C(N)=O [Compound 168, (3-10)[N-(3-(4-Chlorophenyl)propionyl)-D-Thia^3 -Ser(O-Bzl)^4 -NMeTyr^5 -D-Lys^6 -D-Ala^10]LHRH] ({Propanoyl(3-(4-Cl-Ph))}-[d2Thi]S(Bn)[NMeY][dK]LRP[dA]-NH2) the Ki [1] was 0.129 nM.

In the case of CC(C)C[C@H](NC(=O)[C@@H](CCCCN)NC(=O)[C@H](Cc1ccc(O)cc1)N(C)C(=O)[C@H](CO)NC(=O)[C@@H](Cc1cccnc1)NC(=O)CCc1ccc(F)cc1)C(=O)N[C@@H](CCCNC(=N)N)C(=O)N1CCC[C@H]1C(=O)N[C@H](C)C(N)=O [Compound 170, (3-10)[N-(3-(4-Fluorophenyl)propionyl)-D-3-Pal^3 -NMeTyr^5 -D-Lys^6 -D-Ala^10]LHRH] ({Propanoyl(3-(4-F-phenyl))}-[d3Pal]S[NMeY][dK]LRP[dA]-NH2), the Ki [1] is reported as 0.0204 nM.

For CC(C)C[C@H](NC(=O)[C@@H](CCCCNC(=O)c1cccnc1)NC(=O)[C@H](Cc1ccc(O)cc1)N(C)C(=O)[C@H](CO)NC(=O)[C@@H](Cc1cccnc1)NC(=O)CCc1ccc(F)cc1)C(=O)N[C@@H](CCCNC(=N)N)C(=O)N1CCC[C@H]1C(=O)N[C@H](C)C(N)=O [Compound 171] ({Propanoyl(3-(4-F-phenyl))}-[d3Pal]S[NMeY][dK](Nicotinoyl)LRP[dA]-NH2), the Ki [1] was 0.0676 nM.

CC(C)C[C@H](NC(=O)[C@@H](CCCCN)NC(=O)[C@H](Cc1ccc(O)cc1)N(C)C(=O)[C@H](CO)NC(=O)[C@@H](Cc1c[nH]c2ccccc12)NC(=O)CCc1ccc(F)cc1)C(=O)N[C@@H](CCCNC(=N)N)C(=O)N1CCC[C@H]1C(=O)N[C@H](C)C(N)=O [Compound 173, (3-10)[N-(3-(4-Fluorophenyl)propionyl)-D-Trp^3 -NMeTyr^5 -D-Lys^6 -D-Ala^10]LHRH] ({Propanoyl(3-(4-F-phenyl))}-[dW]S[NMeY][dK]LRP[dA]-NH2) was tested, and the Ki [1] was 0.00575 nM.

In the case of CC(C)C[C@H](NC(=O)[C@@H](CCCCNC(=O)c1cccnc1)NC(=O)[C@H](Cc1ccc(O)cc1)N(C)C(=O)[C@H](CO)NC(=O)[C@@H](Cc1cccc2ccccc12)NC(=O)CCc1ccc(F)cc1)C(=O)N[C@@H](CCCNC(=N)N)C(=O)N1CCC[C@H]1C(=O)N[C@H](C)C(N)=O [Compound 174, (3-10)[N-(3-(4-Fluorophenyl)propionyl)-D-1-Nal^3 -NMeTyr^5 -D-Lys^6 (N-epsilon-nicotinyl)-D-Ala^10]LHRH] ({Propanoyl(3-(4-F-phenyl))}-[d1Nal]S[NMeY][dK](Nicotinoyl)LRP[dA]-NH2), the Ki [1] is reported as 0.0132 nM.

Work on CC(C)C[C@H](NC(=O)[C@@H](CCCCN)NC(=O)[C@H](Cc1ccc(O)cc1)N(C)C(=O)[C@H](CO)NC(=O)[C@@H](Cc1ccc(Cl)cc1)NC(=O)CCc1ccc(F)cc1)C(=O)N[C@@H](CCCNC(=N)N)C(=O)N1CCC[C@H]1C(=O)N[C@H](C)C(N)=O [Compound 175, (3-10)[N-(3-(4-Fluorophenyl)propionyl)-D-4-Cl-Phe^3 -NMeTyr^5 -D-Lys^6 -D-Ala^10]LHRH] ({Propanoyl(3-(4-F-phenyl))}-[dPhe(4-Cl)]S[NMeY][dK]LRP[dA]-NH2) yielded a Ki [1] of 0.00631 nM.

Molecule CC(C)C[C@H](NC(=O)[C@@H](CCCCN)NC(=O)[C@H](Cc1ccc(O)cc1)N(C)C(=O)[C@H](CCCc1ccccc1)NC(=O)[C@@H](Cc1cccc2ccccc12)NC(=O)CCc1ccc(F)cc1)C(=O)N[C@@H](CCCNC(=N)N)C(=O)N1CCC[C@H]1C(=O)N[C@H](C)C(N)=O [Compound 176, (3-10)[N-(3-(4-Fluorophenyl)propionyl)-D-1-Nal^3-hhPhe^4 -NMeTyr^5 -D-Lys^6 -D-Ala^10]LHRH] ({Propanoyl(3-(4-F-phenyl))}-[d1Nal][hhPhe][NMeY][dK]LRP[dA]-NH2) has a Ki [1] of 2.88 nM.

For CC(C)C[C@H](NC(=O)[C@@H](CCCCNC(N)=O)NC(=O)[C@H](Cc1ccc(O)cc1)N(C)C(=O)[C@H](CO)NC(=O)[C@@H](Cc1cccc2ccccc12)NC(=O)CCc1ccc(F)cc1)C(=O)N[C@@H](CCCNC(=N)N)C(=O)N1CCC[C@H]1C(=O)N[C@H](C)C(N)=O [Compound 178, (3-10)[N-(3-(4-Fluorophenyl)propionyl)-D-1-Nal^3 -NMeTyr^5 -D-Hcit^6 -D-Ala^10]LHRH] ({Propanoyl(3-(4-F-phenyl))}-[d1Nal]S[NMeY][d(hCit)]LRP[dA]-NH2), the Ki [1] was 0.00955 nM.

Molecule CC(C)C[C@H](NC(=O)[C@@H](CO)NC(=O)[C@H](Cc1ccc(O)cc1)N(C)C(=O)[C@H](CO)NC(=O)[C@H](Cc1cccc2ccccc12)NC(=O)CCc1ccc(F)cc1)C(=O)N[C@@H](CCCNC(=N)N)C(=O)N1CCC[C@H]1C(=O)N[C@H](C)C(N)=O [Compound 180, (3-10)[N-(3-(4-Fluorophenyl)propionyl)-1-Nal^3 -NMeTyr^5 -D-Ser^6 -D-Ala^10]LHRH] ({Propanoyl(3-(4-F-phenyl))}-[1Nal]S[NMeY][dS]LRP[dA]-NH2) has a Ki [1] of 0.0055 nM.

CC(C)C[C@H](NC(=O)[C@@H](CO)NC(=O)[C@H](Cc1ccc(O)cc1)N(C)C(=O)[C@H](CO)NC(=O)[C@@H](Cc1cccc2ccccc12)NC(=O)CCc1ccc(F)cc1)C(=O)N[C@@H](CCCNC(=N)N)C(=O)N1CCC[C@H]1C(=O)N[C@H](C)C(N)=O [Compound 181, (3-10)[N-(3-(4-Fluorophenyl)propionyl)-D-1-Nal^3 -NMeTyr^5 -D-Ser^6 -D-Ala^10]LHRH] ({Propanoyl(3-(4-F-phenyl))}-[d1Nal]S[NMeY][dS]LRP[dA]-NH2) gave a Ki [1] of 0.00398 nM.

CC(C)C[C@H](NC(=O)[C@@H](CCCCN)NC(=O)[C@H](Cc1ccc(O)cc1)N(C)C(=O)[C@H](CO)NC(=O)[C@@H](Cc1cncs1)NC(=O)CCc1ccc(F)cc1)C(=O)N[C@@H](CCCNC(=N)N)C(=O)N1CCC[C@H]1C(=O)N[C@H](C)C(N)=O [Compound 183, (3-10)[N-(3-(4-Fluorophenyl)propionyl)-D-Thiaz^3 -NMeTyr^5 -D-Lys^6 -D-Ala^10]LHRH] ({Propanoyl(3-(4-F-phenyl))}-[X10]S[NMeY][dK]LRP[dA]-NH2) was tested, and the Ki [1] was 0.0263 nM.

In the case of CC(C)C[C@H](NC(=O)[C@@H](Cc1cccnc1)NC(=O)[C@H](Cc1ccc(O)cc1)N(C)C(=O)[C@H](CO)NC(=O)[C@@H](Cc1cccc2ccccc12)NC(=O)CCc1ccc(F)cc1)C(=O)N[C@@H](CCCNC(=N)N)C(=O)N1CCC[C@H]1C(=O)N[C@H](C)C(N)=O [Compound 184, (3-10)[N-(3-(4-Fluorophenyl)propionyl)-D-1-Nal^3 -NMeTyr^5 -D-3-Pal^6 -D-Ala^10]LHRH] ({Propanoyl(3-(4-F-phenyl))}-[d1Nal]S[NMeY][d3Pal]LRP[dA]-NH2), the Ki [1] is reported as 0.00631 nM.

With C[C@@H](NC(=O)[C@@H]1CCCN1C(=O)[C@H](CCCNC(=N)N)NC(=O)[C@H](CC1CCCCC1)NC(=O)[C@@H](CCCCN)NC(=O)[C@H](Cc1ccc(O)cc1)N(C)C(=O)[C@H](CO)NC(=O)[C@@H](Cc1cccc2ccccc12)NC(=O)CCc1ccc(F)cc1)C(N)=O [Compound 185, (3-10)[N-(3-(4-Fluorophenyl)propionyl)-D-1-Nal^3 -NMeTyr^5 -D-Lys^6 -Cha^7 -D-Ala^10]LHRH] ({Propanoyl(3-(4-F-phenyl))}-[d1Nal]S[NMeY][dK][Cha]RP[dA]-NH2) the Ki [1] was 0.0155 nM.

CC(C)C[C@H](NC(=O)[C@@H](CCCCN)NC(=O)[C@H](Cc1ccc(O)cc1)N(C)C(=O)[C@H](CO)NC(=O)[C@@H](Cc1ccc2ccccc2c1)NC(=O)CCc1ccc(F)cc1)C(=O)N[C@@H](CCCNC(=N)N)C(=O)N1CCC[C@H]1C(=O)N[C@H](C)C(N)=O [Compound 186, (3-10)[N-(3-(4-Fluorophenyl)propionyl)-D-2-Nal^3 -NMeTyr^5 -D-Lys^6 -D-Ala^10]LHRH] ({Propanoyl(3-(4-F-phenyl))}-[d2Nal]S[NMeY][dK]LRP[dA]-NH2) was tested, and the Ki [1] was 0.0339 nM.
